The values below are quoted from earlier work in US20050020810A1, “Peptides which target tumor and endothelial cells, compositions and uses thereof” (priority 2002, published 2005).

In data set [1] the test system is DU145.
In data set [2] the test system is MatLyLu cells. The following applies: rat model.
The subject of data set [3] is CT26 colon cancer. The following applies: in combination with 5-FU infusion.

For the substance Ac—PHSCN—NH2, the DU145 invasion entry in data set [1] was “completely inhibits”. Moreover, the “metastasis of MatLyLu cells” value in data set [2] was “completely inhibits”. Moreover, the survival result in data set [3] is reported as “improved survival”.
